In one experiment the test system is Trypanosoma cruzi. Kind of experiment: Growth inhibition of T. cruzi. Type of experiment: cell-based. The note with it: mean ± standard deviation, n ≥ 2. On the procedure: (§1) G. lamblia trophozoites (WBC6) were seeded into 96-well-plates in 0.2 mL Keister-medium containing 10^3 trophozoites per well in the presence of the compounds dissolved in dimethyl sulfoxide (DMSO, final concentration 0.25%) or with DMSO as a solvent control and incubated for 72 h at 37 °C in an anaerobic chamber (80% N2, 10% H2, 10% CO2). Then, plates were centrifuged (2 min, 1000 rpm), medium was removed, and cells were washed once with PBS containing 1 g/L glucose. Then, PBS-glucose containing 10 mg/L resazurin was added, and plates were incubated for up to 5 h at 37 °C. Fluorescence reading (ex 530 nm/em 590 nm) was performed at various time points, and the linear increase of fluorescence was used as a marker for cell viability. IC50 values were calculated using the logit-log algorithm and are given as mean values with 95%-confidence intervals ([Müller et al., 2020]; [Müller and Hemphill, 2013]; [Müller and Müller, 2019]). The assays for growth inhibition of T. b. brucei, T. cruzi, L. infantum, P. falciparum and MRC-5 (human lung fibroblasts MRC-5SV40) were previously described ([Blaazer et al., 2014]). PDE activity was determined exactly as described ([de Heuvel et al., 2021]; [Kunz et al., 2005], [2017b]). All assays were carried out in triplicates and no more than 20% substrate was hydrolyzed in all reactions. Compounds were dissolved in DMSO and the final DMSO concentration was 1% in all reaction mixes. Control reactions with DMSO alone were always included. Data were analyzed using the GraphPad Prism software package (v7.0, GraphPad, San Diego).

The subject of another experiment is Leishmania infantum. Kind of experiment: Growth inhibition of L. infantum. To be noted: mean ± standard deviation, n ≥ 2. The class given is cell-based. How it is done: as §1
Experiment [1] relates to G. lamblia trophozoites (WBC6). Kind of experiment: Growth inhibition of G. lamblia trophozoites (WBC6), resazurin viability read-out. The class given is cell-based, Giardia lamblia. The note with it: for IC50: Giardia duodenalis, WBC6 trophozoites, 72 h, anaerobic, mean ± standard error (95% CI, logit-log), quadruplicates, read-out: IC50 (nM) G.l. How it is done: as §1
Figure S67. Representative drug susceptibility curves of G. lamblia WBC6. Trophozoites were grown anaerobically in the presence of various concentrations of 17 (red), 29 (blue) and the reference compound metronidazole (MET, black). After 72 h, growth of cells was monitored by a cell viability assay based on the reduction of resazurin to a pink fluorescent product. Measured fluorescence units were normalized to the DMSO control. Data points and error bars represent mean and standard error of 4 replicates.
Background: Alamar Blue is a resazurin reagent that responds to reducing activity.

Experiment [2] relates to Trypanosoma brucei brucei. Kind of experiment: Growth inhibition of T. b. brucei. The class given is cell-based. To be noted: mean ± standard deviation, n ≥ 2. On the procedure:
as §1

A further experiment relates to Plasmodium falciparum. Briefly: Growth inhibition of P. falciparum. Type of experiment: cell-based. How it is done: as §1, with “[…]-medium” for “Keister-medium”, “([[…],” for “([Müller et al., 2020]; [Müller and Hemphill, 2013]; [Müller and Müller,”
Experiment [3] deals with MRC-5 (human lung fibroblasts MRC-5SV40). Briefly: Cytotoxicity on MRC-5 cells. Type of experiment: cell-based. On the procedure:
as §1, with “[…]-medium” for “Keister-medium”, “([[…],” for “([Müller et al., 2020]; [Müller and Hemphill, 2013]; [Müller and Müller,”

[4] abbreviates: mean ± standard deviation, n ≥ 2, read-out: IC50 (µM) P.f.
Where [5] appears, read: MRC5, Table S1, mean ± standard deviation, n ≥ 2, read-out: IC50 (µM) MRC-5.
[6] abbreviates: MRC5, mean ± standard deviation, n ≥ 2, read-out: IC50 (nM) MRC-5.

Structures can show the parent of a compound that is named as a salt. Where two headings read alike, the source gives them in different places.

As usually defined, the IC50 is the concentration needed to halve the response being measured. Compound `O=C(Cn1ccnc1[N+](=O)[O-])NCc1ccccc1` [benznidazole, reference compound] came in with an IC50 in the experiment on Trypanosoma cruzi of 2.5 ± 0.4 µM.
`COc1ccc(C2=NN(C3CCN(c4ccc5ncc([N+](=O)[O-])n5n4)CC3)C(=O)[C@H]3CC=CC[C@@H]23)cc1OCc1cccnc1` (relative stereo) [Compound 15, cis-4-(4-Methoxy-3-(pyridin-3-ylmethoxy)phenyl)-2-(1-(3-nitroimidazo[1,2-b]pyridazin-6-yl)piperidin-4-yl)-4a,5,8,8a-tetrahydrophthalazin-1(2H)-one]: the half-maximal inhibitory concentration (IC50) in the experiment with Trypanosoma cruzi amounted to 2.1 µM; with Leishmania infantum, 8.1 µM; in experiment [1], 6.8 ± 1.5 nM; in experiment [2], 2.2 µM; with Plasmodium falciparum (setting [4]), 2.1 ± 0.8 µM; in experiment [3] (setting [5]), 14.9 ± 11.5 µM. The concentration for half-maximal inhibition (IC50) in experiment [3] (setting [6]) turned out to be 15 µM.
With `O=[N+]([O-])c1cnc2ccc(N3CCN(c4ccccc4)CC3)nn12` [Compound 27, 3-Nitro-6-(4-phenylpiperazin-1-yl)imidazo[1,2-b]pyridazine], the 50% inhibitory concentration (IC50) in the experiment with Trypanosoma cruzi was > 64 µM; in the experiment with Leishmania infantum, 35.3 ± 4 µM; in experiment [1], 0.7 ± 0.1 nM; in experiment [2], > 64 µM; in the experiment with Plasmodium falciparum (setting [4]), > 64 µM; in experiment [3] (setting [6]), > 64 µM.
`COc1ccc(C2=NN(C3CCN(c4ccc5ncc([N+](=O)[O-])n5n4)CC3)C(=O)[C@H]3CC=CC[C@@H]23)cc1OCc1ccccn1` (relative stereo) [Compound 17, cis-4-(4-Methoxy-3-(pyridin-2-ylmethoxy)phenyl)-2-(1-(3-nitroimidazo[1,2-b]pyridazin-6-yl)piperidin-4-yl)-4a,5,8,8a-tetrahydrophthalazin-1(2H)-one]: the IC50 in the experiment with Trypanosoma cruzi is 2.1 ± 0.1 µM; in the experiment on Leishmania infantum it was 11.8 ± 7.5 µM; in experiment [1], 0.5 ± 0.1 nM; in experiment [2], 4.92 ± 1.6 µM; in the experiment on Plasmodium falciparum (setting [4]) it was 2.3 ± 1.4 µM; in experiment [3] (setting [6]), > 64 µM. Moreover, the “fold higher anti-Giardia activity than metronidazole” value in experiment [1] (versus metronidazole IC50 = 0.8 μM) was > 1,000 fold.
In the case of `O=[N+]([O-])c1cnc2ccc(N3CCC(Cc4ccccc4)CC3)nn12` [Compound 28, 6-(4-Benzylpiperidin-1-yl)-3-nitroimidazo[1,2-b]pyridazine], the 50% inhibitory concentration (IC50) in the experiment on Trypanosoma cruzi was 8.6 ± 0.2 µM; in the experiment with Leishmania infantum, > 64 µM; in experiment [1] it was 0.5 ± 0.1 nM; in experiment [2] it was 27.6 ± 4.2 µM; with Plasmodium falciparum (setting [4]) it was 23.4 ± 7.2 µM; in experiment [3] (setting [5]) it was 8 ± 0.2 µM. Moreover, the IC50 in experiment [3] (setting [6]) came out at 7.96 µM.
With `c1cn2nc(N3CCCCC3)ccc2n1` [Compound 31, 6-(Piperidin-1-yl)imidazo[1,2-b]pyridazine], the IC50 with Trypanosoma cruzi is 38.4 ± 3.2 µM; with Leishmania infantum, > 64 µM; in experiment [1], > 10000 nM; in experiment [2], > 64 µM; with Plasmodium falciparum (setting [4]), > 64 µM; in experiment [3] (setting [6]) it was > 64 µM. Besides, the “anti-Giardia activity (in words)” value in experiment [1] was “inactive”. The “difference in inhibiting growth of G. lamblia” value in experiment [1] (31 (non-nitro analogue) versus 23) was > 2,500 folds.
Regarding `CN1CCN(c2ccc3ncc([N+](=O)[O-])n3n2)CC1` [Compound 24, 6-(4-Methylpiperazin-1-yl)-3-nitroimidazo[1,2-b]pyridazine formate], the 50% inhibitory concentration (IC50) with Trypanosoma cruzi was 33.5 ± 1.1 µM; in the experiment with Leishmania infantum, > 64 µM; in experiment [1], 144 ± 31 nM; in experiment [2], > 64 µM; in the experiment with Plasmodium falciparum (setting [4]) it was > 64 µM; in experiment [3] (setting [6]) it was > 64 µM.
On to `CCN(CC)CCCC(C)Nc1ccnc2cc(Cl)ccc12` (stereo not shown) [Chloroquine, chloroquine, reference compound], for which, in the experiment with Plasmodium falciparum (read-out: IC50 (µM) P.f.), the half-inhibitory concentration (IC50) was 0.1 ± 0.03 µM.
In experiment [2], `Cc1ccc(C(=O)Nc2ccc(S(=O)(=O)O)c3cc(S(=O)(=O)O)cc(S(=O)(=O)O)c23)cc1NC(=O)c1cccc(NC(=O)Nc2cccc(C(=O)Nc3cc(C(=O)Nc4ccc(S(=O)(=O)O)c5cc(S(=O)(=O)O)cc(S(=O)(=O)O)c45)ccc3C)c2)c1` [Suramine, suramin, reference compound] showed an IC50 of 0.05 ± 0.02 µM.
Turning to `CCCCCCCCCCCCCCCCOP(=O)([O-])OCC[N+](C)(C)C` [Miltefosine, miltefosine, reference compound], in the experiment with Leishmania infantum, half-maximal inhibition (IC50) was put at 10.3 ± 1.3 µM.
As for `Cc1ncc([N+](=O)[O-])n1CCO` [metronidazole, reference compound], the half-inhibitory concentration (IC50) in experiment [1] was 800 ± 100 nM.

Source of the values: paper PMC9213561, “3-nitroimidazo[1,2-b]pyridazine as a novel scaffold for antiparasitics with sub-nanomolar anti-Giardia lamblia activity” (International Journal for Parasitology: Drugs and Drug …, 2022).
